For orientation: IC50 means the concentration at which inhibition is half-maximal.

Where a chain is given by its changes, count along the chain named. Entries after “also recorded” stand apart in the source; their conditions may differ.

Test [1] has as its target T1, anaplastic lymphoma kinase (ALK wt, GST-HIS-tag) (Homo sapiens, UniProt Q9UM73).
T1 construct: GST; His; purchased ProQinase GmbH (Freiburg, Germany); host or cells: bacteria (so in the source)
Put plainly: radiometric protein kinase assay, anaplastic lymphoma kinase. The note with it: Fig. 7A. Format: biochemical.
Description: (§1) IC50 values were calculated using Prism 5.04 for Windows (GraphPad, San Diego, CA, USA; www.graphpad.com). The mathematical model used was ‘Sigmoidal response (variable slope)’ with parameters ‘top’ fixed at 100% and ‘bottom’ at 0%. The fitting method used was a least-squares fit.

For a further test, the target named is T2, caALK5 (Homo sapiens, UniProt P36897, T204D).
T2 construct: expressed in transfected cells; host or cells: HEK 293T
T2 sequence (P36897 34-503 T204D): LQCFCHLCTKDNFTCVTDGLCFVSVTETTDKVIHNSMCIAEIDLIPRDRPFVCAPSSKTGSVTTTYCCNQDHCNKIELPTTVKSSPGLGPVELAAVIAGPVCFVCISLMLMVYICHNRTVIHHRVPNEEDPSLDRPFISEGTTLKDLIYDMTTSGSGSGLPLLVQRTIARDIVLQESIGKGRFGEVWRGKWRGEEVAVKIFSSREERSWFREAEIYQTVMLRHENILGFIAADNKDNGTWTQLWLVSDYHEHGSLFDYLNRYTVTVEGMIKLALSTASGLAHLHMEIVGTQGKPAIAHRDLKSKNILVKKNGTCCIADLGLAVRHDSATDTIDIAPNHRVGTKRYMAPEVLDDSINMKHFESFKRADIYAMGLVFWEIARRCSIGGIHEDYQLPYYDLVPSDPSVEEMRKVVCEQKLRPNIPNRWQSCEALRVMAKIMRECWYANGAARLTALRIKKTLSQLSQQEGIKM
Put plainly: caALK5-induced SMAD phosphorylation in HEK 293T cells. Format: cell-based. The note with it: 1, 5, 10 µM. The source says: HepG2 or HEK 293T cells were lysed in Laemmli sample buffer. Proteins were separated by sodium dodecyl sulfate polyacrylamide gel electrophoresis (SDS-PAGE) and transferred onto […] polyvinylidene difluoride (PVDF) membrane (IPVH00010, Merck Millipore). Membranes were blocked using 5% non-fat dry milk in Tris-buffered saline with 0.1% Tween 20 (655204, Merck Millipore) and probed with the respective primary and secondary antibodies. The signal was detected using Clarity™ Western ECL Substrate (1705060, Bio-Rad) and ChemiDoc Imaging System (17001402, Bio-Rad). The antibodies used for immunoblotting were raised against the following proteins: phospho-SMAD1/5/8 ([Persson et al., 1998]; 1:1000), SMAD1 (Cell Signaling Technology, #6944; 1:1000), GAPDH (Merck Millipore, #G8795; 1:5000) and hemagglutinin (HA; Roche, #12CA5; 1:1000).
For experiments with the caALK type I receptor constructs, HEK 293T cells were seeded in 24-well plates at ∼90% confluency and transfected with the DNA expression constructs in the presence of PEI. Thirty hours after transfection, the cells were added to serum-starved medium and treated with compounds for 16 h (overnight). Subsequently, the cells were washed with PBS and lysed in Laemmli sample buffer. […]

The next test concerns the target T3, TGFB-R1 (ALK5) (Homo sapiens, UniProt P36897).
T3 construct: purchased ProQinase GmbH (Freiburg, Germany); host or cells: bacteria (so in the source)
T3 sequence (P36897 34-503): T2 sequence (P36897 34-503 T204D) with D171T
In words: radiometric protein kinase assay, ALK5. It counts as biochemical. The note with it: [ATP] = 1 μM; Fig. 7K.

T1 sequence (Q9UM73 19-1620): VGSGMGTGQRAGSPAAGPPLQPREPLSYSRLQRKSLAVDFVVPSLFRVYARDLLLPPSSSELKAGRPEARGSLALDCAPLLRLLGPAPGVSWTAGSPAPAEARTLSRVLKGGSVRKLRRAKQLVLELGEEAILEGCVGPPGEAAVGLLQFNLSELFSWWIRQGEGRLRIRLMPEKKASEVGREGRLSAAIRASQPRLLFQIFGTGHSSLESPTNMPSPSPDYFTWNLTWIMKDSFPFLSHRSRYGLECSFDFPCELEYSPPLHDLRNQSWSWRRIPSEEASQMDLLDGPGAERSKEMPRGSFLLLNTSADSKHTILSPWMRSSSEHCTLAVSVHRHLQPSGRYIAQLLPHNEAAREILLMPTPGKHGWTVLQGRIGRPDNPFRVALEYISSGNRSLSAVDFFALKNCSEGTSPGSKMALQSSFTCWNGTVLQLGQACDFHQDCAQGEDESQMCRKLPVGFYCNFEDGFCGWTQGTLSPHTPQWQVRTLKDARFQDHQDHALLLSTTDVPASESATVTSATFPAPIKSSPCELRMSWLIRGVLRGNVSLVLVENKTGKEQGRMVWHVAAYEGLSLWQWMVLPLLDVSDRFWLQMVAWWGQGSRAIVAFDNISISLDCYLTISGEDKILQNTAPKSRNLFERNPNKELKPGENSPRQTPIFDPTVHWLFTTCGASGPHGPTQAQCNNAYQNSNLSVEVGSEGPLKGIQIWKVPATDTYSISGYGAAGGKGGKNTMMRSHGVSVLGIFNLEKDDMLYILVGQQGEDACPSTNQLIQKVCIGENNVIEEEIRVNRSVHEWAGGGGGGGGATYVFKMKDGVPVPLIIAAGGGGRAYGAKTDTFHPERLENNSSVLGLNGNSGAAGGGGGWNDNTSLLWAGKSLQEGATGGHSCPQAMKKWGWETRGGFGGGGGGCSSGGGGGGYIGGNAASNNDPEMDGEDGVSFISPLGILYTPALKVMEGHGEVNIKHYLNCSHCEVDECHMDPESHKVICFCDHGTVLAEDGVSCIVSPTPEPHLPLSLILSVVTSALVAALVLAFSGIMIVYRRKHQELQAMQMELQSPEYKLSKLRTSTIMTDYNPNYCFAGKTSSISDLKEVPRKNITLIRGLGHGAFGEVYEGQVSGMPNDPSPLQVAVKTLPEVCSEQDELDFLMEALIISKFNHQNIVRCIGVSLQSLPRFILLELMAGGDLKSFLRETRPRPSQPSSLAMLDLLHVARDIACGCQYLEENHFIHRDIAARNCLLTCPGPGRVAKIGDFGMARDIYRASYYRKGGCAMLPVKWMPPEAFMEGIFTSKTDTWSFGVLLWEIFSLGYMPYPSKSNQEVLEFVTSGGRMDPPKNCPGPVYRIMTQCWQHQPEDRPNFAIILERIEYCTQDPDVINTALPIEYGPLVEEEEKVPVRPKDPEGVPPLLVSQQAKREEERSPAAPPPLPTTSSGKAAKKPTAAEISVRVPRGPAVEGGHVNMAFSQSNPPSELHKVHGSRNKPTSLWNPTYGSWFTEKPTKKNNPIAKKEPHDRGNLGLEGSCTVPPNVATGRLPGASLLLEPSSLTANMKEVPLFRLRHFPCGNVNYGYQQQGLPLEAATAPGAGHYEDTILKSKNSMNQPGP
Description for TGFB-R1 (ALK5): as §1

Consider `CC(=O)C1=C(O)C=C2Oc3c(C(N)=O)c(O)cc(O)c3[C@]2(C)C1=O` [cercosporamide, Cercosporamide], for which the figures for the IC50 (in test [1]; against TGFB-R1 (ALK5)) were 10000 nM and 0.29 µM, respectively. The “effect on caALK5-induced SMAD1/5 phosphorylation” value at caALK5 was “not inhibited; also recorded: only weakly inhibited”.

The values above are taken from publication PMC7522027 (Disease Models & Mechanisms, 2020).
